Source: US6545051B1, “Antibacterial hydroxamic acid derivatives” (British Biotech Pharmaceuticals, Ltd., priority 1999, dated 2003)
≈ marks a conversion by molar mass, not a printed value.

Tests used:
[1] = test system: Staphylococcus capitis (American Type Culture Collection number 35661); assay: Minimal inhibitory concentration (MIC) against Staphylococcus capitis; type: cell-based; settings: 2×YT broth, 37° C., 18 hours, lowest drug concentration that inhibited visible growth
Protocol: Minimal inhibitory concentrations (MIC) of inhibitors against E. coli strain DH5α (Genotype; F-φ80dlacZΔM 15Δ(lacZYA-argF)U 169 deoR recA1 endA1 hsdR17(rk^−, mk^+)phoA supE44λ^−thi-1 gyrA96 relA1) obtained from GibcoBRL Life Technologies, or Staphylococcus capitis (American Type Culture Collection number 35661) were determined as follows. Stock solutions of each test compound were prepared by dissolution of the compound in dimethylsulfoxide at 10 mM. For the determination of the minimal inhibitory concentration, two fold serial dilutions were prepared in 2×YT broth (typtone 16 g/1, yeast extract 10 g/1, sodium chloride 5 g/1 obtained from BIO 101 Inc, 1070 Joshua Way, Vista, Calif. 92083, USA) to yield 0.05 ml compound-containing medium per well. Inocula were prepared from cultures grown overnight in 2×YT broth at 37° C. Cell densities were adjusted to absorbance at 660 nm (A660)=0.1; the optical density-standardized preparations were diluted 1:1000 in 2×YT broth; and each well inoculated with 0.05 ml of the diluted bacteria. Microtiter plates were incubated at 37° C. for 18 hours in a humidified incubator. The MIC (μM) was recorded as the lowest drug concentration that inhibited visible growth.

MIC [1]	melting point	Structure (SMILES)
100 µM (≈ 40.7 µg/mL)		CCCCCC[C@H](CC(=O)NO)C(=O)N[C@@H](Cc1ccccc1)C(=O)OC(C)C
	198 to 203 °C	CCOC(=O)[C@@H](NC(=O)[C@H](CC(C)C)[C@H](C)C(=O)NO)C(C)(C)C [Example 2]
